Laboratory results: US20090118255A1, “Crp Lowering Agent” (TAKEDA PHARMACEUTICAL COMPANY LIMITED, priority 2004, published 2009)

What was measured:
[1] = test system: plasma CRP; experiment: Plasma CRP lowering effect, WHHL rat, 28 days oral with mixed food; type: in vivo; details: male WHHL rat, mean ± SE, N = 11
Protocol: To 2 month-old male WHHL […] (11 per group) was orally administered with a mixed food a vehicle or Test compound 1 at a dose of 100 and 200 mg/kg for 28 days. Before administration and after 28 days administration, plasma CRP level was determined using CRPα Test Wako (Wako Pure Chemical Industries, Ltd.) with Hitachi, Ltd. Autoanalyzer 7070 (Table 1).

[2] = test system: CRP; details: literature reports (Ballantyne 2003; Sager 2003); cited from earlier work

SMILES	Plasma CRP level, after 28 days administration ([1]; 100 mg/kg orally with mixed food for 28 days)	Plasma CRP level, after 28 days administration ([1]; 200 mg/kg orally with mixed food for 28 days, *P < 0.025 vs. control)	Plasma CRP level, value of before administration ([1]; baseline of the 100 mg/kg group)	Plasma CRP level, value of before administration ([1]; baseline of the 200 mg/kg group)	CRP lowering activity [2]
COc1cccc([C@H]2O[C@H](CC(=O)N3CCC(CC(=O)O)CC3)C(=O)N(CC(C)(C)COC(C)=O)c3ccc(Cl)cc32)c1OC [Test compound 1, N-[[(3R,5S)-1-(3-acetoxy-2,2-dimethylpropyl)-7-chloro-5-(2,3-dimethoxyphenyl)-2-oxo-1,2,3,5-tetrahydro-4,1-benzoxazepin-3-yl]acetyl]piperidine-4-acetic acid]	3.2 ± 0.6 mg/dL	2.1 ± 0.2* mg/dL	4.4 ± 0.4 mg/dL	4.4 ± 0.6 mg/dL	
O=C1[C@H](CC[C@H](O)c2ccc(F)cc2)[C@@H](c2ccc(O)cc2)N1c1ccc(F)cc1 [ezetimibe]					no CRP lowering activity
